# Reference: ChEMBL document CHEMBL6103579, “Antiproliferative activity of selenium-enriched coumarin derivatives on the SK-N-SH neuroblastoma cell line: Mechanistic insights” (Eur J Med Chem, 2025)
# Activity calls are given as the source filed them. No cut-off for these calls is given here.
# Assays:
# Neuroblastoma cell = experiment: Antiproliferative activity against human Neuroblastoma cell assessed as inhibition of cell growth incubated for 60 hrs by CCK-8 method; assay type: functional, cell-based
# [1] = Antiproliferative activity against human Embryonic lung cell assessed as inhibition of cell growth incubated for 60 hrs by CCK-8 method; assay type: toxicity, cell-based
# N2a [2] = experiment: Antitumor activity against mouse N2a cells implanted in female ICR mouse model assessed as reduction in tumor weight at 20 mg/kg, ip measured upto 8 days (reference value: 0.9 +/-0.26 g); assay type: functional; details: time <= 8 day
# N2a [3] = experiment: Antitumor activity against mouse N2a cells implanted in female ICR mouse model assessed as tumor inhibition rate at 20 mg/kg, ip measured upto 8 days relative to control; assay type: functional; design: scale not given: the % may be the effect or the level left; details: time <= 8 day
# N2a [4] = experiment: Antitumor activity against mouse N2a cells implanted in female ICR mouse model assessed as change in body weight at 20 mg/kg, ip measured upto 8 days (reference value: 25.54 +/-2.19 g); assay type: functional; details: time <= 8 day
# [5] = Toxicity in female ICR mouse assessed as change in organ coefficient of heart at 20 mg/kg, ip […] (reference value: 0.006+/-0.002); assay type: organism-based; details: in vivo
# [6] = Toxicity in female ICR mouse assessed as change in organ coefficient of liver at 20 mg/kg, ip […] (reference value: 0.058+/-0.010); assay type: organism-based; details: in vivo
# [7] = Toxicity in female ICR mouse assessed as change in organ coefficient of spleen at 20 mg/kg, ip […] (reference value: 0.006+/-0.002); assay type: organism-based; details: in vivo
# [8] = Toxicity in female ICR mouse assessed as change in organ coefficient of lung at 20 mg/kg, ip […] (reference value: 0.007+/-0.001); assay type: organism-based; details: in vivo
# [9] = Toxicity in female ICR mouse assessed as change in organ coefficient of kidney at 20 mg/kg, ip […] (reference value: 0.007); assay type: organism-based; details: in vivo
SMILES,Activity (Neuroblastoma cell),Activity [1],Activity (N2a [2]) [g],Activity (N2a [3]) [%],Activity (N2a [4]) [g],Activity [5],Activity [6],Activity [7],Activity [8],Activity [9]
N#C[Se]CCCOc1ccc2cc(C(=O)N3N=C(c4ccc(Br)cc4)CC3c3ccc(F)cc3)c(=O)oc2c1 (stereo not given),Active,Non-toxic,–,–,–,–,–,–,–,–
O=P1(N(CCCl)CCCl)NCCCO1 (stereo not given) [CYCLOPHOSPHAMIDE ANHYDROUS],–,–,0.32,64.6,27.2,0.006,0.059,0.004,0.007,0.007
